Laboratory results taken from PMC11396839, “Structure-Aided Computational Design of Triazole-Based Targeted Covalent Inhibitors of Cruzipain” (Molecules, 2024).
“And” between values parts separate entries of the source, which are not always exact repeats. Identical values can stand only once. Like-named read-outs stand apart in the source and are kept apart here.

Assays:
[1] = tested on: T. cruzi (Tulahuen trypomastigotes overexpressing β-galactosidase) in Vero cells; experiment: T. cruzi inhibition assay, infection model in Vero cells, β-galactosidase activity; format: cell-based, Trypanosoma cruzi; conditions: for anti-T. cruzi/cytotoxicity balance in words: 50 μM (Ald-4 20 μM)
Procedure: To perform the assay, the drug screening method reported by Buckner et al. was adapted. Vero cells were seeded at 1 × 10^4 per well on 96-well culture plates in 100 μ L MEM-5% FBS. Tulahuen trypomastigotes overexpressing the E. coli β -galactosidase protein were distributed in triplicates on the plate. After a 2 h incubation at 37 °C, the culture media were extracted and replaced with fresh MEM-5% FBS with 1 μ M, 10 μ M or 50 μ M solutions of the triazole-based inhibitors, and the plate was incubated another 72 h at 37 °C. Ninety-six hours post infection, the cell culture media were removed and cells and intracellular amastigotes were lysed in 100 μ L lysis buffer (25 mM Tris pH 8, 2 mM EDTA, 2 mM DTT, 1% Triton X-100, 10% glycerol in ultrapure MQ water) for 10 min at 37 °C. Then, 100 μ L 2× reaction buffer (200 mM sodium phosphate pH 8, 2 mM MgCl2, 100 mM 2-mercaptoethanol and 1.33 mg.mL^−1 o-nitrophenyl- β -galactoside (ONPG)) was added and the reaction was allowed to proceed until a yellow color developed (1–2 h at 37 °C). The absorbance at 420 nm was measured in a Synergy HTX multi-mode microplate reader (Biotek Instruments, Winooski, VT, USA) and normalized to the value obtained for the infection in the absence of inhibitors. To determine its IC50, Ald-6 was evaluated at nine different concentrations (0.098, 0.195, 0.39, 0.78, 1.56 3.13 6.25, 12.5 and 50.0 μ M), following the same protocol. Each infection condition and inhibitor were tested in triplicates in four independent experiments.

[2] = biological target: T1, recombinant CZP (cruzain) (Trypanosoma cruzi, UniProt P25779); experiment: CZP inhibition, cleavage of fluorogenic substrate Z-FR-AMC (initial screening and IC50); format: biochemical, T. cruzi
T1 construct: gift of Allison Doak and Prof; Brian Shoichet (University of California San Francisco)
T1 sequence (P25779 123-337): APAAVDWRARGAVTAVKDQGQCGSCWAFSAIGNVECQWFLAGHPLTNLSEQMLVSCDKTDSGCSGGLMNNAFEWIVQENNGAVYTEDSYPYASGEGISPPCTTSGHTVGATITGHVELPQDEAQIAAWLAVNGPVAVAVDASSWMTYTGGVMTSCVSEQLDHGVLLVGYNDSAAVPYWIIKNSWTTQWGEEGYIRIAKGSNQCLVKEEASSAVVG
Procedure: The previously reported methods were followed to evaluate the in vitro activity against CZP [91, 92, 93, 94]. Allison Doak and Prof. Brian Shoichet (University of California San Francisco, San Francisco, CA, USA) generously provided recombinant CZP (cruzain). The enzyme activity was measured by monitoring the cleavage of the fluorogenic substrate Z-FR-AMC at 25 °C. Unless stated otherwise, assays were performed using 2.5 μ M of substrate ( KM = 0.5 ± 0.1 μ M) and 0.5 nM CZP in a 0.1 M sodium acetate buffer, pH 5.5, 0.01% Triton X-100 and 2 mM β -mercaptoethanol. DMSO and 1 μ M E-64 were employed as negative and positive controls, respectively, in all assays. Fluorescence was monitored at 340/440 nm (excitation/emission) over time in a Biotec 87 Synergy 2 fluorimeter at the Multiuser Laboratory of the Biochemistry and Immunology Department (UFMG, Belo Horizonte, Brazil). All assays were performed in triplicate in two independent experiments.
Initial screening. For the initial screening against CZP, compounds at 100 μ M were tested against CZP with and without a 10min pre-incubation with the enzyme. The fluorescence was monitored for 10 min at 5 s intervals. DMSO and E-64 were employed in all assays as negative and positive controls, respectively. Initial velocities of the negative control (DMSO) were compared to those in the presence of compounds to calculate the percentage of inhibition. The reported values correspond to the mean and standard error of the mean (SEM) of experiments performed in triplicate in two independent experiments.
IC50 determination. Compounds in at least eight distinct compound concentrations (400 μ M, 100 μ M, 25 μ M, 6.25 μ M, 1.5 μ M, 0.4 μ M, 0.1 μ M and 0.025 μ M) were incubated with CZP for 10 min, and once the substrate was added, the fluorescence was monitored for 10 min at 5 s intervals. IC50 curves were obtained from a non-linear fit of the inhibition values versus the logarithmic concentration of the compounds. The reported IC50 values are the mean and SEM of two independent measurements performed in triplicate.

CZP [3] = biological target: T2, CZP (Trypanosoma cruzi, UniProt P25779); experiment: Jump dilution assay on CZP; format: biochemical, T. cruzi; conditions: for slope of progress curve relative to control (DMSO): 10 × IC50 with 100 × [CZP] 30 min, 100× dilution, 2 h monitoring; for mode of CZP inhibition from jump dilution: in words
T2 construct: gift of Allison Doak and Prof; Brian Shoichet (University of California San Francisco)
T2 sequence (P25779 123-337): as above
Procedure: Jump dilution assay. […] Fluorescence intensities were monitored continuously for 2 h.

Vero cells = experiment: Cytotoxicity assay, Alamar blue; format: cell-based; conditions: 50 μM, 96 h incubation
Procedure: To evaluate the viability of Vero cells, the Alamar blue method was followed. First, 10^4 Vero cells/well in 100 μ L MEM-10% FBS were seeded in 96-well culture plates. After 24 h, 50 μ M inhibitor solution was added to cell monolayers and incubated for 96 h. After incubation, resazurin solution (final concentration 10 μ g·mL^−1) was added to each well, and fluorescence was measured after 2 h in a Synergy HTX multi-mode microplate reader (Biotek Instruments, Winooski, VT, USA) using the […] filters. Each condition was tested in triplicate and in at least three independent experiments.

[4] = tested on: T. cruzi (Tulahuen trypomastigotes overexpressing β-galactosidase) in Vero cells; experiment: T. cruzi inhibition assay, infection model in Vero cells, β-galactosidase activity; format: cell-based, Trypanosoma cruzi; conditions: 50 μM, 72 h p.i.
CZP [5] = biological target: T2, CZP; experiment: Aggregation assays (Triton X-100 sensitivity, BSA preincubation) on CZP; format: biochemical, T. cruzi; conditions: for CZP activity inhibition percentage, Triton 0% + BSA: compound at its IC50, 10-min preincubation with 4 mg/mL BSA; for CZP activity inhibition percentage, Triton 0% / CZP activity inhibition percentage, Triton 0.01% / CZP activity inhibition percentage, Triton 0.1%: compound at its IC50, 10 min preincubation
Procedure: Aggregation Assays. To evaluate detergent sensitivity, CZP was pre-incubated with compounds at their IC50 for 10 min at room temperature in varying concentrations of Triton X-100 (0%, 0.1% and 0.01%). […] For comparison, the four conditions were assayed in parallel. Aggregation was excluded when the difference in inhibition percentages between the different conditions was less than 20%.

[6] = biological target: T3, recombinant human cathepsin L (hCatL) (Homo sapiens, UniProt P07711); experiment: hCatL screening, cleavage of Z-FR-AMC; format: biochemical; conditions: for selectivity for CZP over hCatL in words: 100 μM; for inhibition at 100 µM: 10 min incubation, read-out: % hCatL inhib.
T3 construct: purchased Sigma-Aldrich
T3 sequence (P07711 114-333): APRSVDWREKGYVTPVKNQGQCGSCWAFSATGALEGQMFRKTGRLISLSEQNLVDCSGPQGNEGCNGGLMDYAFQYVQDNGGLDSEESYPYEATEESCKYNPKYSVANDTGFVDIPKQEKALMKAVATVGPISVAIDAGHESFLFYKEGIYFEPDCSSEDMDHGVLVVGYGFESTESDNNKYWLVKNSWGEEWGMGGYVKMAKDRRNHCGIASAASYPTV
Procedure: The recombinant human cathepsin L (hCatL) (Sigma-Aldrich) was activated prior to the assays. First, 10 ng/ μ L of the enzyme was incubated in the activation buffer (50 mM MES, pH 6, 1 mM EDTA, 5mM DTT) for 30 min at 37 °C. hCatL activity was measured based on the cleavage of the fluorescent substrate Z-FR-AMC in a Biotec 87 Synergy 2 fluorimeter at the Multiuser Laboratory of the Biochemistry and Immunology Department (UFMG, Brazil). The assays were executed in 96-well round bottom black plates in 50 mM MES buffer, pH 6, containing 1 mM EDTA, 5 mM DTT, 0.001% Triton-X100, 5 pg/ μ L enzyme and 25 μ M Z-FR-AMC at 37 °C. The triazole-based derivatives were tested against hCatL, at 100 μ M, with a 10 min pre-incubation with the enzyme. The initial velocities of the DMSO control were compared to those in the presence of the compounds. Assays were executed in triplicate in two independent experiments, and enzyme activity was measured for 20 min.

CZP [7] = biological target: T2, CZP; experiment: Mechanism of CZP inhibition (Michaelis-Menten, Lineweaver-Burk); format: biochemical, T. cruzi
Procedure: Mechanism of inhibition. […] The results were calculated by nonlinear (Michaelis–Menten) and linear regression (Lineweaver–Burk plots). The effect of the inhibitor concentration on the KMapp and its Ki was evaluated by the general linear F-test.

T. cruzi = tested on: T. cruzi; set-up: method as in PMID 18435536, PMID 9705954, PMID 20088534; conditions: cited from earlier work
[8] = 100 μM, 10 min pre-incubation of the enzyme with compound, read-out: % CZP inh.
[9] = 10 min incubation with CZP, mean ± SEM of two independent experiments, read-out: IC50 (μM) against CZP
[10] = read-out: % CZP inhib. wo/inc., 100 μM, without prior incubation

SMILES	anti-T. cruzi/cytotoxicity balance in words [1]	inhibition at 100 µM [2, 8]	cytotoxicity, uninfected Vero cell viability in words (Vero cells)	CZP activity inhibition percentage, Triton 0% + BSA (CZP [5])	CZP activity inhibition percentage, Triton 0% (CZP [5])	CZP activity inhibition percentage, Triton 0.01% (CZP [5])	CZP activity inhibition percentage, Triton 0.1% (CZP [5])	selectivity for CZP over hCatL in words [6]	inhibition at 100 µM [6]	also measured
NCCCCC(C=O)n1cc(C(NCc2ccc3c(c2)OCO3)C2CCCCC2)nn1 (centres unmarked) [Ald-6]	acceptable anti-T. cruzi/cytotoxicity balance	81 ± 2%	low cytotoxicity	37± 3%	43± 5%	31± 3%	44± 4%	selective CZP inhibitors	26 ± 5%	reduction in T. cruzi infection ([1]; 1 μM): 27%; parasite survival ([1]; 10 μM, after 72 h of incubation): 7%; IC50 ([1]; Trypanosoma cruzi, TULAHUEN, Vero, read-out: IC50^Tc): 3.2 ± 0.4 µM; IC50^Tc/IC50^CZP ratio ([1]; translation ratio): 0.97 ± 0.16; IC50 [2, 9]: 3.3 ± 0.3 µM; inhibition at 100 µM [2, 10]: 18 ± 3%; slope of progress curve relative to control (DMSO) (CZP [3]): about 12%; mode of CZP inhibition from jump dilution (CZP [3]): covalent irreversible inhibition; reduction of infection [4]: 97%
O=CC(CO)n1cc(C(NCc2ccc3c(c2)OCO3)C2CCCCC2)nn1 (centres unmarked) [Ald-10]	acceptable anti-T. cruzi/cytotoxicity balance	87 ± 1%	low cytotoxicity	43± 2%	47± 6%	43± 2%	46± 8%	selective CZP inhibitors	7 ± 2%	reduction of T. cruzi viability ([1]; 10 μM): 38%; IC50 [2]: 3.4 ± 0.5 µM; inhibition at 100 µM [2, 10]: 21 ± 1%; slope of progress curve relative to control (DMSO) (CZP [3]): ~24%; mode of CZP inhibition from jump dilution (CZP [3]): covalent irreversible inhibition; reduction of infection [4]: 97%
O=CC(CO)n1cc(C(C2CCCCC2)N2CCc3ccccc3C2)nn1 (centres unmarked) [Ald-20]	acceptable anti-T. cruzi/cytotoxicity balance	83 ± 3%						selective CZP inhibitors	0%	IC50 [2]: 7 ± 4 µM
COC(=O)C(CS)n1cc(C(NCc2ccc3c(c2)OCO3)C2CCCCC2)nn1 (centres unmarked) [Es-14]		≥ 47%	significantly reduced cell viability					selective CZP inhibitors	0%	
COC(=O)C(CCCNC(=N)N)n1cc(C(NCc2ccc3c(c2)OCO3)C2CCCCC2)nn1 (centres unmarked) [Es-15]	acceptable anti-T. cruzi/cytotoxicity balance			40± 3%	44± 5%	41± 1%	36± 7%	selective CZP inhibitors	26 ± 16%	inhibition at 100 µM ([2]; 100 μM, without prior incubation, read-out: % CZP inhib. wo/inc.): 81 ± 2%; IC50 [2, 9]: 6.8 ± 0.3 µM; Ki (CZP [7]; calculated, general linear F-test p = 0.0127): 3 ± 1 µM; mechanism of CZP inhibition (CZP [7]; in words): mixed mechanism of inhibition; α value (CZP [7]; mixed-model fit of Michaelis-Menten data): 8.3
CN1CCN(C(=O)N[C@@H](Cc2ccccc2)C(=O)N[C@H](/C=C/S(=O)(=O)c2ccccc2)CCc2ccccc2)CC1 [K777]										IC50 (T. cruzi): ~10 µM and 10 µM
CCCCC(C(=O)COc1c(F)c(F)cc(F)c1F)n1cc([C@@](C)(NCc2ccc3ncccc3c2)C(C)C)nn1 (some centres unmarked) [Ts-370]										IC50 (T. cruzi): 5.1 µM
